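1) Cells in 96-well plates. 2) Compound, 48 h, 5 concentrations. 3) Linear interpolation between surrounding doses. 4) Unreached endpoint = highest concentration. TGI: total growth inhibition.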
Legend:
Test in all cases: NCI-60 cell line screen, 48 h
MDA-MB-435 = test system: MDA-MB-435
HT29 colon = test system: HT29 colon
786-0 renal = test system: 786-0 renal
NCI-H23 lung = test system: NCI-H23 lung
SF-295 CNS = test system: SF-295 CNS
HCT-15 colon = test system: HCT-15 colon
MDA-N = test system: MDA-N
MOLT-4 leukemia = test system: MOLT-4 leukemia
HCC-2998 colon = test system: HCC-2998 colon
DU-145 prostate = test system: DU-145 prostate
SF-268 CNS = test system: SF-268 CNS
SW-620 colon = test system: SW-620 colon
U251 CNS = test system: U251 CNS
HCT-116 colon = test system: HCT-116 colon
ACHN renal = test system: ACHN renal
A498 renal = test system: A498 renal
IGROV1 ovarian = test system: IGROV1 ovarian
MALME-3M melanoma = test system: MALME-3M melanoma
M14 melanoma = test system: M14 melanoma
MCF7 breast = test system: MCF7 breast
T-47D breast = test system: T-47D breast
NCI-H226 lung = test system: NCI-H226 lung
KM12 colon = test system: KM12 colon
SK-OV-3 ovarian = test system: SK-OV-3 ovarian
SR leukemia = test system: SR leukemia
EKVX NSCLC = test system: EKVX NSCLC
SK-MEL-2 melanoma = test system: SK-MEL-2 melanoma
UACC-257 melanoma = test system: UACC-257 melanoma
PC-3 prostate = test system: PC-3 prostate
TK-10 renal = test system: TK-10 renal
COLO 205 colon = test system: COLO 205 colon
CCRF-CEM leukemia = test system: CCRF-CEM leukemia
SNB-75 CNS = test system: SNB-75 CNS
MDA-MB-231 breast = test system: MDA-MB-231 breast
HL-60(TB) leukemia = test system: HL-60(TB) leukemia
UACC-62 melanoma = test system: UACC-62 melanoma
LOX IMVI melanoma = test system: LOX IMVI melanoma
NCI-H460 lung = test system: NCI-H460 lung
OVCAR-5 ovarian = test system: OVCAR-5 ovarian
HOP-62 NSCLC = test system: HOP-62 NSCLC
HOP-92 NSCLC = test system: HOP-92 NSCLC
OVCAR-3 ovarian = test system: OVCAR-3 ovarian
BT-549 breast = test system: BT-549 breast
NCI-H522 lung = test system: NCI-H522 lung
SF-539 CNS = test system: SF-539 CNS
CAKI-1 renal = test system: CAKI-1 renal
RPMI-8226 leukemia = test system: RPMI-8226 leukemia
OVCAR-4 ovarian = test system: OVCAR-4 ovarian
RXF 393 renal = test system: RXF 393 renal
A549 NSCLC = test system: A549 NSCLC
UO-31 renal = test system: UO-31 renal
SK-MEL-5 melanoma = test system: SK-MEL-5 melanoma
SNB-19 CNS = test system: SNB-19 CNS
SK-MEL-28 melanoma = test system: SK-MEL-28 melanoma
HS 578T breast = test system: HS 578T breast
SN12C renal = test system: SN12C renal
K-562 leukemia = test system: K-562 leukemia
OVCAR-8 ovarian = test system: OVCAR-8 ovarian

Measured: TGI

CC(=O)OCC12C(OC(C)=O)C(=O)C3C(OC(C)=O)C14OC3(C)COC(=O)c1cccnc1C(C)C(C)C(=O)OC(C(OC(C)=O)C2OC(C)=O)C4(C)O (stereo not drawn)
> 100 µM: MDA-MB-435 | HT29 colon | 786-0 renal | NCI-H23 lung | SF-295 CNS | HCT-15 colon | MDA-N | MOLT-4 leukemia | HCC-2998 colon | DU-145 prostate | SF-268 CNS | SW-620 colon | U251 CNS | HCT-116 colon | ACHN renal | A498 renal | IGROV1 ovarian | MALME-3M melanoma | M14 melanoma | MCF7 breast | T-47D breast | NCI-H226 lung | KM12 colon | SK-OV-3 ovarian | SR leukemia | EKVX NSCLC | SK-MEL-2 melanoma | UACC-257 melanoma | PC-3 prostate | TK-10 renal | COLO 205 colon | CCRF-CEM leukemia | SNB-75 CNS | MDA-MB-231 breast | HL-60(TB) leukemia | UACC-62 melanoma | LOX IMVI melanoma | NCI-H460 lung | OVCAR-5 ovarian | HOP-62 NSCLC | HOP-92 NSCLC | OVCAR-3 ovarian | BT-549 breast | NCI-H522 lung | SF-539 CNS | CAKI-1 renal | RPMI-8226 leukemia | OVCAR-4 ovarian | RXF 393 renal | A549 NSCLC | UO-31 renal | SK-MEL-5 melanoma | SNB-19 CNS | SK-MEL-28 melanoma | HS 578T breast | SN12C renal | K-562 leukemia | OVCAR-8 ovarian

Source: PubChem BioAssay (NCI)
